| melting point | Compound |
| --- | --- |
| 4 °C | FC(F)(F)C(F)(Cl)C(Cl)(Cl)C(F)(F)F (stereo not given) |
| 87.5 °C | CCN(CC)c1ccc(N=O)cc1 |
| 138 to 140 °C | CC(=O)c1sc(-c2ccc(Cl)cc2)cc1N |
| 252 to 260 °C | Brc1ccc(-c2nc(-c3ccccc3)c(-c3ccccc3)[nH]2)cc1 |
| 213 °C | C(=Cc1ccc2ccc3ccccc3c2c1)c1ccc2ccccc2c1 |
| 210 to 213 °C | NC(=S)Nc1ccc(Cl)c(Cl)c1 |
| -106 °C | FC1(F)C(Cl)=C(Cl)C(F)(F)C1(F)F |
| 184 to 186 °C | CC(=O)NC1C(O)CC(O)(C(=O)O)OC1C(O)C(O)CO (stereo not given) |
| 107 °C | O=C(Cl)c1cc(C(=O)Cl)c([N+](=O)[O-])cc1[N+](=O)[O-] |
| 26 °C | O=C(Cl)c1cccc2ccccc12 |
| 104 °C | O=[N+]([O-])c1c(O)ccc2ccccc12 |
| -17 °C | CC(C)c1ccc(C(C)C)cc1 |
| 52 to 53 °C | CC(C)(C)OC(=O)N1CCN(Cc2ccc(CO)cc2)CC1 |
| 100 °C | CC(=O)C(=O)Nc1ccccc1 |
| 107 to 108 °C | CC(C)(C)OC(=O)N1CCN(Cc2cccc(N)c2)CC1 |
| 191 to 193 °C | Nc1nc2ccccc2n1Cc1ccc(F)cc1 |
| 25 °C | C1=CCc2ccccc2C1 |
| 161 °C | CCOC(=O)CCC(C)C1CCC2C3C(=O)CC4CC(O)CCC4(C)C3CC(O)C12C (stereo not given) |
| 160 °C | COc1cccc(NC(N)=S)c1 |

| melting point | Compound |
| --- | --- |
| 61 to 63 °C | O=C=Nc1ccc2c(c1)OCCOCCOCCOCCOCCO2 |
| -39 °C | COc1ccccc1F |
| 67 °C | CCOC1OC(=O)c2c(OC)cccc21 (stereo not given) |
| 149 to 151 °C | O=C(O)CCC(=O)c1ccc2c(c1)OCCCO2 |
| 112 to 114 °C | BrCc1sc(-c2ccccc2)nc1-c1ccccc1 |
| 10 to 11 °C | COc1c(Cl)cccc1Cl |
| 134 °C | O=C(O)Cc1cccc(Cl)c1Cl |
| 163 to 164 °C | O=c1c(Cl)c(Cl)cnn1-c1ccccc1 |
| 137 °C | COc1cccc(C(CCC(=O)O)C(C)(C)C(=O)O)c1 (stereo not given) |
| 135 to 138 °C | CCOC(=O)c1c(NC(=S)NCc2ccccc2)sc2c1CCN(Cc1ccccc1)C2 |
| 129 to 135 °C | OC1C(C2COC3(CCCCC3)O2)OC2OC3(CCCCC3)OC21 (stereo not given) |
| 300 °C | N[C@H]1CC[C@@H](C(=O)O)CC1 |
| 216 °C | CCC1(O)C(=O)OCc2c1cc1n(c2=O)Cc2cc3c(CN(C)C)c(O)ccc3nc2-1 (stereo not given) |
| 180 to 185 °C | CC1NC(C(=O)O)CS1 (mixture of isomers) |
| 88 °C | OC1COC2C(O)COC12 (stereo not given) |
| 150 °C | O=Cc1ccc(-c2ccc(C(=O)O)cc2)cc1 |
| 225 °C | Cn1cc(CCC(=O)O)c(=O)n(C)c1=O |
| 224 °C | Nc1nnc(C(F)(F)F)s1 |
| 141 to 143 °C | COC(=O)c1ccc(N2CCCC2)cc1 |

The remaining lines, values behind:

| Compound | melting point |
| --- | --- |
| O=C1NC(=S)NC(=O)C1=NNc1ccc(C(=O)O)cc1 | 340 °C |
| CC1=NNC(=O)N(N=Cc2cccnc2)C1 | 217 °C |
| O=C(O)c1c(Cl)c(Cl)c(Cl)c(Cl)c1C(=O)Nc1cccc(Cl)c1Cl | 198 °C |
| O=C(Cl)c1cc(-c2ccccc2)on1 | 86 to 88 °C |
| OC1CCN(c2nccc(C(F)(F)F)n2)CC1 | 99 to 100 °C |
| CC(C)C1CCC(Cc2ccc(Cl)cc2)C1(O)Cn1cncn1 (stereo not given) | 89 °C |
| CC(=O)OC1(C)Cc2c(C)c(C)c(C)c(C)c21 (stereo not given) | 70 °C |
| O=C(O)c1cccc2c1Cc1ccccc1-2 | 247 °C |
| N#CC1=C(N)Oc2c(c(C(F)(F)F)nn2-c2ccccc2)C1c1c(Cl)cc(Cl)cc1Cl (stereo not given) | 207 °C |
| Cc1ccc(C(O)c2cc(C)ccc2O)cc1 (stereo not given) | 98 °C |
| CCOC(=O)c1ccc(F)cc1 | 26 °C |
| CSc1nc2[nH]c(=S)n(Cc3ccccc3)c(=O)c2n1C | 231 to 233 °C |
| C[Si](C)(C)C#Cc1ccc(C#C[Si](C)(C)C)cc1 | 120 °C |
| COC(=O)c1ccc(C(N)=O)cc1 | 206 °C |
| C=CC(=O)Nc1ccc2c(c1)OCCOCCOCCOCCOCCO2 | 108 to 112 °C |
| CS(=O)(=O)c1ccc(C#N)cc1 | 137 to 142 °C |
| CC1OC(=O)C2CC3CCCCC3C(C=CC3CCCC(C)N3C)C12 (single isomer, unassigned; (+)) | 130 to 136 °C |
| C=CC1CN2CCC1CC2c1[nH]c2ccccc2c1CCO (stereo not given) | 186 °C |
| CCCC(C(N)=O)n1nc2ccccc2n1 (stereo not given) | 126 °C |
| CC(=O)c1sc2ccccc2c1C | 78 °C |
| CCCCNC(=O)c1ccc(Cl)cc1O | 91.5 °C |
| COc1cc(C)c2c(c1)CCC(=Cc1ccccc1)C2=O | 96 to 97 °C |

| Compound | melting point |
| --- | --- |
| COc1ccc(C(C)=CC(=O)O)c(OC)c1 | 149 °C |
| c1ccc(Nc2nc(N3CCOCC3)nc(N3CCOCC3)n2)cc1 | 173 °C |
| CCCC(=O)Oc1c[nH]c2cc(Cl)c(Br)cc12 | 96 to 100 °C |
| COC(=O)C1=C(C)NC(C)=C(C(=O)OC)C1c1cccc(OC)c1O | 191 °C |
| CC(=O)n1c(C)cc2cc3cc(C)[nH]c3cc21 | 279 °C |
| CCC1CN2CCC1CC2C(O)c1ccnc2ccc(OCCC(C)C)cc12 (stereo not given) | 152 °C |
| CC=Cc1ccc2c(c1)OCO2 | 8.2 °C |
| Cc1nccc(O)c1OCc1ccc(Cl)cc1 | 195 to 199 °C |
| NC1CCCCCCCCCCC1 | 28 to 30 °C |
| O=C(O)C(c1ccccc1)(c1ccccc1)c1ccccc1 | 268 to 269 °C |
| COc1cc(-c2nnc3n2N=C(c2ccccc2)CS3)cc(OC)c1OC | 197 °C |
| CCOC(=O)C(C(C)=O)C(=O)c1ccc(C(=O)C(C(C)=O)C(=O)OCC)cc1 (stereo not given) | 99 °C |
| Nc1cccc(Oc2ccccn2)c1 | 76 to 78 °C |
| COc1cc2c(c(OC)c1OC)-c1ccc(O)c(=O)cc1C(NC(C)=O)CC2 (stereo not given) | 178 °C |
| CC1C(=O)C23C(O)CC4C(C)(C)CCC(O)C4(CO)C2C(O)CC1C3O (stereo not given) | 278 °C |
| CN(C)c1ccc(C=C2C(=O)NN=C2c2c(O)c3ccccc3n(C)c2=O)cc1 | 262 °C |
| CC12CC(=CO)C(=O)CC1CCC1C2CCC2(C)C1CCC2(C)O (stereo not given) | 188 °C |
| CC(=O)Nc1c(Cl)cccc1Cl | 181 °C |
| CNC1CC2OC(C)(C1OC)n1c3ccccc3c3c4c(c5c6ccccc6n2c5c31)C(=O)NC4 (stereo not given) | 270 °C |
| O=Cc1ccc(Br)c(Br)c1 | 71 °C |
| Clc1cccc(C(Cl)(Cl)Cl)n1 | 63 °C |
| Cc1cccc(O[Si]23OCCN(CCO2)CCO3)c1 | 166 °C |

| Compound | melting point |
| --- | --- |
| Nc1ccc([N+](=O)[O-])cc1C(F)(F)F | 92 °C |
| Cc1ccc(N)cc1O | 160 to 165 °C |
| Cc1cccc(C=CC(=O)O)c1 | 116 to 119 °C |
| COc1ccc(C(N)=NO)cc1 | 119 to 121 °C |
| N#Cc1cccc2c(NC(=O)c3ccccc3)cccc12 | 211 to 212 °C |
| Nc1ccc(Br)nn1 | 194 °C |
| CCOC(=O)C1=C(C)NC(=O)NC1c1cccc(OC)c1O (stereo not given) | 209 °C |
| CC(=O)c1c(-c2c(Cl)cccc2Cl)noc1C | 72 to 74 °C |
| CC(C)SSC(C)C | -69 °C |
| O=[N+]([O-])c1ccc(Br)c(Cl)c1 | 61 °C |
| CC1=C(C(=O)OCc2ccccc2)C(c2ccco2)NC(=S)N1 (stereo not given) | 164 °C |
| N#CC(OC1OC(COC2OC(CO)C(O)C(O)C2O)C(O)C(O)C1O)c1ccccc1 (stereo not given) | 224 °C |
| COc1cc2c(cc1OC)C(c1ccccc1Cl)N(C(C)=O)CC2 (stereo not given) | 186 to 188 °C |
| Cl/C(=C\c1ccccc1)c1cccc2ccccc12 | 117 °C |
| CC(C)(C)OC(=O)NC(C)(C)C(=O)O | 117 to 121 °C |
| Cc1cc(C)c([N+](=O)[O-])c(C)c1 | 44 °C |
| O=[N+]([O-])c1cc(-c2ncco2)cc([N+](=O)[O-])c1 | 130 °C |
| O=NN1CCc2ccccc21 | 83 °C |
| CCCCCCCCCC(=O)c1ccccc1 | 34 to 38 °C |
| Clc1ccc(Cl)c(Cl)c1 | 17 °C |
| BrCC(CBr)CBr | -32 °C |
| CC1(C)CC(=O)C(=NNc2ccc(Br)cc2)C(=O)C1 | 204 °C |

| Compound | melting point |
| --- | --- |
| O=C1OC(CO)C(O)C1O (stereo not given) | 83 to 85 °C |
| NC(=O)c1ccnc(I)c1 | 165 °C |
| O=NN(CC(c1ccccc1)c1ccccc1)CC(c1ccccc1)c1ccccc1 | 179 °C |
| NCCC(c1ccccc1)c1ccccc1 | 29 to 31 °C |
| CCOC(=O)c1csc(NC(=O)CCl)n1 | 208 to 210 °C |
| COC(=O)C1=C(N)Oc2cc(C)n(CCc3ccccc3)c(=O)c2C1c1cccc([N+](=O)[O-])c1 (stereo not given) | 216 °C |
| CC(=O)Nc1cc([N+](=O)[O-])c(F)cc1F | 146 to 148 °C |
| O=Cc1ccc(Sc2ccccn2)o1 | 65 to 67 °C |
| NC(=O)n1c(C2CCCCC2)nn(-c2ccccc2)c1=O | 198 °C |
| CC(=O)OCC(COC(C)=O)OC(C)=O | 78 °C |
| CC(Oc1ccc(Oc2cnc3cc(Cl)ccc3n2)cc1)C(=O)OCC1CCCO1 (stereo not given) | 64 °C |
| O=C(O)Cc1c(F)c(F)c(F)c(F)c1F | 109 °C |
| N#C/C(=C/c1cccs1)c1nc(-c2ccc(Cl)cc2)cs1 | 170 °C |
| N#CC(=NOCC1OCCO1)c1ccccc1 | 77.7 °C |
| CC(=O)CCc1oc2c([N+](=O)[O-])cccc2c1-c1ccc(C)o1 | 103 °C |
| c1ccc(Cc2cc3ccccc3cn2)cc1 | 64 °C |
| Nc1c(C(=O)O)sc2ncccc12 | 202 to 204 °C |
| O=C1CCCC2=C1[C@@H](c1cccc([N+](=O)[O-])c1)[C@@H]1C(=O)CCC[C@@]1(O)O2 | 219 °C |
| CCCC(C)C(O)CC (stereo not given) | -123 °C |
| Fc1cc(Cl)cc(CBr)c1 | 25 to 30 °C |
| Cc1noc(-c2ccccc2CO)n1 | 91 to 92 °C |
